Assay results from patent US12077503B2, “Substituted cyclic amides and their use as herbicides” (FMC CORPORATION, priority 2015, dated 2024).

What was measured:
Format in all cases: in vivo
[1] = tested on: corn (Zea mays); experiment: Test A postemergence; conditions: for Corn plant response rating: 125 g ai/ha, visual injury rating on 0 to 100 scale (0 no effect, 100 complete control), approx. 10 d; for Plant response rating, Corn: 500 g ai/ha
Outline: (§1)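 Visual injury scores from 0, no effect, to 100, complete control, were assigned versus untreated controls roughly 10 d after treatment in the greenhouse. Test chemicals, formulated with surfactant in a non-phytotoxic solvent, were applied to planted seeds as a preemergence soil spray or postemergence to one- to two-leaf plants 2 to 10 cm tall, in loam–sand soil.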

[2] = tested on: wheat (Triticum aestivum); experiment: Test A postemergence; conditions: for Wheat plant response rating: 125 g ai/ha, postemergence, visual injury rating on 0 to 100 scale (0 no effect, 100 complete control), approx. 10 d; for Plant response rating, Wheat: Postemergence, 500 g ai/ha, 0 to 100 scale where 0 is no effect and 100 is complete control
Outline: as §1

[3] = tested on: ragweed (common ragweed, Ambrosia elatior); experiment: Test A postemergence; conditions: for Ragweed plant response rating: 125 g ai/ha, postemergence, visual injury rating on 0 to 100 scale (0 no effect, 100 complete control), approx. 10 d; for Plant response rating, Ragweed: Postemergence, 500 g ai/ha, 0 to 100 scale where 0 is no effect and 100 is complete control
Outline: as §1

[4] = tested on: pigweed (Amaranthus retroflexus); experiment: Test A postemergence; conditions: for Pigweed plant response rating: 125 g ai/ha, postemergence, visual injury rating on 0 to 100 scale (0 no effect, 100 complete control), approx. 10 d; for Plant response rating, Pigweed: Postemergence, 500 g ai/ha, 0 to 100 scale where 0 is no effect and 100 is complete control
Outline: as §1

[5] = tested on: blackgrass (Alopecurus myosuroides); experiment: Test A postemergence; conditions: for Blackgrass plant response rating: 125 g ai/ha, visual injury rating on 0 to 100 scale (0 no effect, 100 complete control), approx. 10 d; for Plant response rating, Blackgrass: 500 g ai/ha
Outline: as §1

[6] = tested on: Kochia (Kochia scoparia); experiment: Test A postemergence; conditions: for Kochia plant response rating: 125 g ai/ha, postemergence, visual injury rating on 0 to 100 scale (0 no effect, 100 complete control), approx. 10 d; for Plant response rating, Kochia: Postemergence, 500 g ai/ha, 0 to 100 scale where 0 is no effect and 100 is complete control
Outline: as §1

[7] = tested on: barnyardgrass (Echinochloa crus-galli); experiment: Test A postemergence; conditions: for Barnyardgrass plant response rating: 125 g ai/ha, visual injury rating on 0 to 100 scale (0 no effect, 100 complete control), approx. 10 d; for Plant response rating, Barnyardgrass: 500 g ai/ha
Outline: as §1

[8] = tested on: Galium (catchweed bedstraw, Galium aparine); experiment: Test A postemergence; conditions: for Galium plant response rating: 125 g ai/ha, postemergence, visual injury rating on 0 to 100 scale (0 no effect, 100 complete control), approx. 10 d; for Plant response rating, Galium: Postemergence, 500 g ai/ha, 0 to 100 scale where 0 is no effect and 100 is complete control
Outline: as §1

[9] = tested on: ryegrass, Italian (Italian ryegrass, Lolium multiflorum); experiment: Test A postemergence; conditions: for Ryegrass, Italian plant response rating: 125 g ai/ha, postemergence, visual injury rating on 0 to 100 scale (0 no effect, 100 complete control), approx. 10 d; for Plant response rating, Ryegrass, Italian: Postemergence, 500 g ai/ha, 0 to 100 scale where 0 is no effect and 100 is complete control
Outline: as §1

[10] = tested on: giant foxtail (Setaria faberii); experiment: Test A postemergence; conditions: for Foxtail, Giant plant response rating: 125 g ai/ha, postemergence, visual injury rating on 0 to 100 scale (0 no effect, 100 complete control), approx. 10 d; for Plant response rating, Foxtail, Giant: Postemergence, 500 g ai/ha, 0 to 100 scale where 0 is no effect and 100 is complete control
Outline: as §1

[11] = tested on: barnyardgrass (Echinochloa crus-galli); experiment: Test B flooded paddy test; conditions: Flood, 250 g ai/ha; 0 to 100 scale where 0 is no effect and 100 is complete control; 13 to 15 d
Outline: (§2)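 Compound goes directly into floodwater once pots are flooded 3 cm above soil, targeting plants at two leaves; the water depth is then held for the test duration. Plants sit 13–15 d in a greenhouse and are rated visually, 100 denoting complete control.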

[12] = tested on: rice (Oryra sativa); experiment: Test B flooded paddy test; conditions: Flood, 250 g ai/ha; 0 to 100 scale where 0 is no effect and 100 is complete control; 13 to 15 d
Outline: as §2

[13] = tested on: ducksalad (Heteranthera limosa); experiment: Test B flooded paddy test; conditions: Flood, 250 g ai/ha; 0 to 100 scale where 0 is no effect and 100 is complete control; 13 to 15 d
Outline: as §2

[14] = tested on: sedge, umbrella (small-flower umbrella sedge, Cyperus difformis); experiment: Test B flooded paddy test; conditions: Flood, 250 g ai/ha; 0 to 100 scale where 0 is no effect and 100 is complete control; 13 to 15 d
Outline: as §2

[15] = tested on: ragweed (common ragweed, Ambrosia elatior); experiment: Test A preemergence; conditions: Preemergence; for Plant response rating, Ragweed: 125 g ai/ha, visual injury after approximately 10 d, 0 to 100 scale where 0 is no effect and 100 is complete control; for Ragweed plant response rating (0 to 100 scale, 0 is no effect, 100 is complete control): 500 g ai/ha, visual injury approx. 10 d
Outline: as §1

[16] = tested on: pigweed (Amaranthus retroflexus); experiment: Test A preemergence; conditions: Preemergence; for Plant response rating, Pigweed: 125 g ai/ha, visual injury after approximately 10 d, 0 to 100 scale where 0 is no effect and 100 is complete control; for Pigweed plant response rating (0 to 100 scale, 0 is no effect, 100 is complete control): 500 g ai/ha, visual injury approx. 10 d
[17] = tested on: Kochia (Kochia scoparia); experiment: Test A preemergence; conditions: for Plant response rating, Kochia: 125 g ai/ha; for Kochia plant response rating (0 to 100 scale, 0 is no effect, 100 is complete control): 500 g ai/ha, visual injury approx. 10 d
Outline: as §1

[18] = tested on: barnyardgrass (Echinochloa crus-galli); experiment: Test A preemergence; conditions: for Plant response rating, Barnyardgrass: 125 g ai/ha; for Barnyardgrass plant response rating (0 to 100 scale, 0 is no effect, 100 is complete control): 500 g ai/ha, visual injury approx. 10 d
Outline: as §1

[19] = tested on: ryegrass, Italian (Italian ryegrass, Lolium multiflorum); experiment: Test A preemergence; conditions: Preemergence; for Plant response rating, Ryegrass, Italian: 125 g ai/ha, visual injury after approximately 10 d, 0 to 100 scale where 0 is no effect and 100 is complete control; for Ryegrass, Italian plant response rating (0 to 100 scale, 0 is no effect, 100 is complete control): 500 g ai/ha, visual injury approx. 10 d
Outline: as §1

[20] = tested on: giant foxtail (Setaria faberii); experiment: Test A preemergence; conditions: for Plant response rating, Foxtail, Giant: 125 g ai/ha; for Foxtail, Giant plant response rating (0 to 100 scale, 0 is no effect, 100 is complete control): 500 g ai/ha, visual injury approx. 10 d
Outline: as §1

[21] = postemergence, 0 to 100 scale, 0 no effect, 100 complete control
[22] = preemergence, 0 to 100 scale (0 no effect, 100 complete control)
[23] = Postemergence, 0 to 100 scale where 0 is no effect and 100 is complete control
[24] = Preemergence, visual injury after approximately 10 d, 0 to 100 scale where 0 is no effect and 100 is complete control

SMILES	Corn plant response rating ([1]; postemergence)	Wheat plant response rating [2]	Plant response rating, Wheat [2]	Ragweed plant response rating [3]	Plant response rating, Ragweed [3]	Pigweed plant response rating [4]	Plant response rating, Pigweed [4]	Blackgrass plant response rating ([5]; postemergence)	Kochia plant response rating [6]	Plant response rating, Kochia [6]	Barnyardgrass plant response rating ([7]; postemergence)	Galium plant response rating [8]	Plant response rating, Galium [8]	Ryegrass, Italian plant response rating [9]	Plant response rating, Ryegrass, Italian [9]	Foxtail, Giant plant response rating [10]	Plant response rating, Foxtail, Giant [10]	Plant response rating, Barnyardgrass [11]	Plant response rating, Rice [12]	Plant response rating, Ducksalad [13]	other results
C=C(Cl)CN1CC(c2cccc(C(F)(F)F)c2)C(C(=O)Nc2cccc(F)c2F)C1=O (stereo not drawn) [Compound 480]	0	0	30	0	0	0	0	0	0	0	0	0	0	0	0	20	50	0	0	0	Plant response rating, Corn [1, 21]: 0; Plant response rating, Blackgrass [5, 21]: 0; Plant response rating, Barnyardgrass [7, 21]: 30; Plant response rating, Sedge, Umbrella [14]: 0; Plant response rating, Ragweed [15]: 0; Ragweed plant response rating (0 to 100 scale, 0 is no effect, 100 is complete control) [15]: 0; Plant response rating, Pigweed [16]: 0; Pigweed plant response rating (0 to 100 scale, 0 is no effect, 100 is complete control) [16]: 0; Plant response rating, Kochia [17, 22]: 0; Kochia plant response rating (0 to 100 scale, 0 is no effect, 100 is complete control) ([17]; Preemergence): 0; Plant response rating, Barnyardgrass [18, 22]: 0; Barnyardgrass plant response rating (0 to 100 scale, 0 is no effect, 100 is complete control) ([18]; Preemergence): 0; Plant response rating, Ryegrass, Italian [19]: 0; Ryegrass, Italian plant response rating (0 to 100 scale, 0 is no effect, 100 is complete control) [19]: 0; Plant response rating, Foxtail, Giant [20, 22]: 70; Foxtail, Giant plant response rating (0 to 100 scale, 0 is no effect, 100 is complete control) ([20]; Preemergence): 90
O=C1NCC(c2cc(F)cc(C(F)(F)F)c2)C1C(=O)Nc1ccccc1F (stereo not drawn) [Compound 489]	70	30	70	0	30	0	20	50	0	40	90	0	40	30	50	90	90	65	20	100	Plant response rating, Corn [1, 23]: 80; Plant response rating, Blackgrass [5, 23]: 70; Plant response rating, Barnyardgrass [7, 23]: 90; Plant response rating, Sedge, Umbrella [14]: 0; Plant response rating, Ragweed [15]: 30; Ragweed plant response rating (0 to 100 scale, 0 is no effect, 100 is complete control) [15]: 30; Plant response rating, Pigweed [16]: 0; Pigweed plant response rating (0 to 100 scale, 0 is no effect, 100 is complete control) [16]: 40; Plant response rating, Kochia [17, 24]: 20; Kochia plant response rating (0 to 100 scale, 0 is no effect, 100 is complete control) ([17]; Preemergence): 50; Plant response rating, Barnyardgrass [18, 24]: 90; Barnyardgrass plant response rating (0 to 100 scale, 0 is no effect, 100 is complete control) ([18]; Preemergence): 90; Plant response rating, Ryegrass, Italian [19]: 30; Ryegrass, Italian plant response rating (0 to 100 scale, 0 is no effect, 100 is complete control) [19]: 20; Plant response rating, Foxtail, Giant [20, 24]: 90; Foxtail, Giant plant response rating (0 to 100 scale, 0 is no effect, 100 is complete control) ([20]; Preemergence): 90
